Patent US20230364084A1, “METHODS FOR PREVENTING OR TREATING CONDITIONS RELATED TO PIKFYVE ACTIVITY” (The Regents of the University of Michigan, priority 2020, published 2023)
pKd: −log10 of the molar value.

Key:
[1] = test system: prostate cancer cell lines; assay: cell cycle analysis; assay type: cell-based, human
Description: Cells were seeded in 6-well plates and treated with various drugs for 72 hours. Single cells were fixed with 70% ethanol, stained with propidium iodine, and cell cycle was analyzed by flow cytometry.

[2] = test system: autophagosomes in LNCaP, VCaP and DU145 cells; assay: CYTO-ID autophagosome detection; assay type: cell-based, human; conditions: 24 hours
Description: 10,000 cells were plated in 96-well plates and incubated with 300 nM of the various compounds for 24 hours. Autophagy activities were detected with CYTO-ID® Autophagy detection kit (Cat No. ENZ-KIT175, Enzo Life Science) according to the manufacturer's instructions, with fluorescence intensity measured on a TECAN M1000 plate reader. Autophagosome induction factor was calculated according to the manufacturer's instructions.

PC3 and DU145 cells = assay: autophagic flux detection (GFP-LC3-RFP-LC3ΔG probe); assay type: cell-based, human; conditions: PC3 or DU145 cells, 24 hours
Description: For autophagic flux detection, 10,000 cells were plated in 96-well plates and incubated with various compounds in complete medium for 24 hours. GFP and RFP fluorescence intensities were measured on a TECAN M1000 plate reader.

PIKfyve [3] = target: T1, PIKfyve (Homo sapiens, UniProt Q9Y2I7); assay: kinase dissociation constant analysis (KdELECT); assay type: binding; set-up: purchased DiscoveRX (KINOMEscan scanLIPID panel; KdELECT); conditions: 11-point dose-response, duplicate
Description: (§1) Quantitative binding constants (Kd) of ESK981 to PIKfyve, PIP5K1A, PIP5K1C, and PIK3CA were generated using KdELECT® platform (DiscoveRX). An 11-point dose-response of ESK981 (0.05-3000 nM) was used, and the experiment was performed in duplicate. Detailed information is described on the DiscoveRX website (www.discoverx.com).

[4] = toxicity evaluation in mice (body weight, serum chemistry, organ histology); assay type: in vivo, mouse
Description: To determine whether ESK981-mediated growth inhibition translated into anti-tumor effects, the efficacy of ESK981 in blocking prostate cancer growth in mouse xenograft models was assessed. VCaP cells were chosen for initial experiments because this cell line harbors the TMPRSS2:ERG gene fusion and AR amplification, both of which are frequent molecular aberrations in patients with advanced CRPC^29. A castration-resistant VCaP tumor-bearing xenograft mouse model was generated to mimic disease progression in human patients (FIG. 3a).
Whole blood was collected using BD Microtainer SST tubes, and serum was isolated by centrifugation at 7000 rpm for 10 minutes. Sera were submitted to the University of Michigan ULAM Pathology Cores for Animal Research for liver and renal chemistry analysis.

[5] = test system: advanced, relapsed, or refractory solid tumors; conditions: cited from earlier work
PIP5K1C = target: T2, PIP5K1C (Homo sapiens, UniProt O60331); assay: kinase dissociation constant analysis (KdELECT); assay type: binding; conditions: 11-point dose-response, duplicate
T2 construct: purchased DiscoveRX (KdELECT)
Description: as §1

PIK3CA = target: T3, PIK3CA (Homo sapiens, UniProt P42336); assay: kinase dissociation constant analysis (KdELECT); assay type: binding; conditions: 11-point dose-response, duplicate
T3 construct: purchased DiscoveRX (KdELECT)
Description: as §1

PIP5K1A = target: T4, PIP5K1A (Homo sapiens, UniProt Q99755); assay: kinase dissociation constant analysis (KdELECT); assay type: binding; conditions: 11-point dose-response, duplicate
T4 construct: purchased DiscoveRX (KdELECT)
Description: as §1

[6] = test system: CXCL10 in VCaP, PC3 and DU145 cells; assay: CXCL10 mRNA by qPCR in the presence of IFNγ; assay type: cell-based, human; conditions: PC3 and DU145, 24 hours
Description: Total RNA was extracted from cells or tissue using the miRNeasy mini kit (Qiagen), and cDNA was synthesized from 1 μg total RNA using the High Capacity cDNA Reverse Transcription Kit (Applied Biosystems). qPCR was performed using Fast SYBR Green Master Mix (Applied Biosystems) on the ViiA7 Real-Time PCR System (Applied Biosystems). The target mRNA expression was quantified using the ΔΔCt method and normalized to GAPDH expression. The primer sequences used for the SYBR green qPCR are as follows: […]

[7] = test system: MDA-PCa-146-10 neuroendocrine prostate cancer PDX; assay: MDA-PCa-146-10 patient-derived xenograft; assay type: in vivo, mouse; conditions: 30 mg/kg
Description: The University of Texas M.D. Anderson Cancer Center (MDACC) patient-derived xenografts (PDX) series has been previously described^62-64. PDXs were derived from men with CRPC undergoing palliative resections using described protocols^65,66. MDA-PCa-146-12 and 146-10 PDX were derived from a patient initially diagnosed with Gleason 3+4=7 prostate adenocarcinoma with an initial PSA of 10.7 ng/ml. […] PDXs were maintained in male SCID mice by surgically implanting 2 mm^3 tumors coated with 100% Matrigel to both flanks of mice. Once tumors reached 100-200 mm^3 in size, mice were randomized and divided into different treatment groups receiving either 30 mg/kg ESK981 or vehicle (ORA-PLUS) by oral gavage 5 days per week.

VEGFR-2 (KDR) = VEGFR-2 (KDR) (Homo sapiens, UniProt P35968); conditions: cited from earlier work
PIKfyve [8] = target: T1, PIKfyve; assay: cellular thermal shift assay; assay type: cell-based; set-up: endogenous in cells; host or cells: VCaP cells; conditions: VCaP cells, 1 μM, 2 hours
Description: The ability of compounds to interact with, and thereby stabilize the target in intact cells, was analyzed essentially as previously described^60,61. The target engagement of ESK981 to PIKfyve was performed in VCaP cells. Cells were treated with DMSO, ESK981 (1 μM), or apilimod (1 μM) for 2 hours at 37° C. and 5% CO2, and 1×10^6 single cell suspensions were diluted into 50 μl of PBS containing protease inhibitor. Cell suspensions were then incubated in a PCR thermal cycler at various temperatures for 2 cycles of 3 minutes heating followed by 3 minutes cooling at room temperature. Cells were lysed by three cycles of freeze-thawing using liquid nitrogen. 20 μl of the soluble fraction of cell lysates were analyzed by western blot.

VCaP 3D spheroids = assay: 3D spheroid culture; assay type: cell-based, human; conditions: VCaP 3D spheroid culture, compared with cabozantinib
Description: Nuclear red fluorescent protein-expressing VCaP cells were seeded in ultralow attachment 96-well plates and spun down at 1000 rpm for 10 minutes to pellet cells. Spheroids were formed after 3 days of incubation in a cell culture incubator, and then treatment was started. Red fluorescence intensity was monitored by IncuCyte ZOOM.

T1 sequence (Q9Y2I7 whole entry): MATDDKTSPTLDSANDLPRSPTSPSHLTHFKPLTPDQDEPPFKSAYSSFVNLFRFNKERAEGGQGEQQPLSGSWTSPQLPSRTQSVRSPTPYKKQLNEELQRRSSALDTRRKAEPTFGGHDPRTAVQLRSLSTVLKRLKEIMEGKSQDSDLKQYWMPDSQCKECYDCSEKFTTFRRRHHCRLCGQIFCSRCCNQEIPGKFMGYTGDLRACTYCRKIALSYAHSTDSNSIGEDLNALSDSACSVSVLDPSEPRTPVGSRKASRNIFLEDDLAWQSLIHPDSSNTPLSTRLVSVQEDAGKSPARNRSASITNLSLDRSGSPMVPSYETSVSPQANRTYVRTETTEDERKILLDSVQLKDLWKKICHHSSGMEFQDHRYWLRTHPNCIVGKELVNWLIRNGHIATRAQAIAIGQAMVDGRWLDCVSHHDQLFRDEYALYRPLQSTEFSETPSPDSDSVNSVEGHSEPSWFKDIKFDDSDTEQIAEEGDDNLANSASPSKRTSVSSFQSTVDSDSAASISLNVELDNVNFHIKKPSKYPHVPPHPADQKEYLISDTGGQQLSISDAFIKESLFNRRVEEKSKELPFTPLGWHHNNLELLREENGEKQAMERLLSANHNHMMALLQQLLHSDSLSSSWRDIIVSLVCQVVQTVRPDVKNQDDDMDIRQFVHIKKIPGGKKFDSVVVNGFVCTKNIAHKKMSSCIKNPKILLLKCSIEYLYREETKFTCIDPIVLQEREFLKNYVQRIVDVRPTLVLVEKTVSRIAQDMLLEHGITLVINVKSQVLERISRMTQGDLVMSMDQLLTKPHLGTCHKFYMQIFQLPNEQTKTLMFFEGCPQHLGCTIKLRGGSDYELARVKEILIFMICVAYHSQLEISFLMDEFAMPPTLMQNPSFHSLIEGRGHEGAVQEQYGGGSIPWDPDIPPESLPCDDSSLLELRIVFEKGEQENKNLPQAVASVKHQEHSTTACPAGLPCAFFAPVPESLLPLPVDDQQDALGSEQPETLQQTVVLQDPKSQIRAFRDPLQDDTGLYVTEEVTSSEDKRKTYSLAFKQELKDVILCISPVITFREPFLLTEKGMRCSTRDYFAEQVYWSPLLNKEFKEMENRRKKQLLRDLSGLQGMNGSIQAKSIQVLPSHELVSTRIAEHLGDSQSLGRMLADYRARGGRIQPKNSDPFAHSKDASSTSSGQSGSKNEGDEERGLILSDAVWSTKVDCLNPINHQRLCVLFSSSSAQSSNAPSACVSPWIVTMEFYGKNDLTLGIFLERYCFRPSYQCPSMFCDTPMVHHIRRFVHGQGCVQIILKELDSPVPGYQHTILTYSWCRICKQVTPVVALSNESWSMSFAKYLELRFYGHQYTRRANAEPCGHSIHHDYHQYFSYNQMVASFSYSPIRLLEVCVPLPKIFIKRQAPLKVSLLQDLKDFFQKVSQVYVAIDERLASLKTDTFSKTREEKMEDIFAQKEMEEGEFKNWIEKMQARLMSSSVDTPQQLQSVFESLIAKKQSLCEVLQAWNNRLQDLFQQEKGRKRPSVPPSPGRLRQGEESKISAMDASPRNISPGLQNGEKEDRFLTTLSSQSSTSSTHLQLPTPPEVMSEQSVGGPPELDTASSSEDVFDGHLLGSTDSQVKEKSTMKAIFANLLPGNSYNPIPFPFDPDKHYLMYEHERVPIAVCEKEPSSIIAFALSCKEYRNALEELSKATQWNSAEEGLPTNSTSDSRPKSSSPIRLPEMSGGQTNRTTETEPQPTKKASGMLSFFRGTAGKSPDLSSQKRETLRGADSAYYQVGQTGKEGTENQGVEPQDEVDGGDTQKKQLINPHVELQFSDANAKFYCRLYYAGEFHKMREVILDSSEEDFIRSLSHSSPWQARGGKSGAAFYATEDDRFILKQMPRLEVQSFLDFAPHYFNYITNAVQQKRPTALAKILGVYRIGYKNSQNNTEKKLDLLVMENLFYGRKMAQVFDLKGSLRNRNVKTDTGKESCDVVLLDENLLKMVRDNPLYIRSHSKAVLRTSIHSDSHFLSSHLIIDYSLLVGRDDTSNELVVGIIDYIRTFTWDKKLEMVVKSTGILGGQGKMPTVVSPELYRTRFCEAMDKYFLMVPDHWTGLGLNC
T4 sequence (Q99755 whole entry): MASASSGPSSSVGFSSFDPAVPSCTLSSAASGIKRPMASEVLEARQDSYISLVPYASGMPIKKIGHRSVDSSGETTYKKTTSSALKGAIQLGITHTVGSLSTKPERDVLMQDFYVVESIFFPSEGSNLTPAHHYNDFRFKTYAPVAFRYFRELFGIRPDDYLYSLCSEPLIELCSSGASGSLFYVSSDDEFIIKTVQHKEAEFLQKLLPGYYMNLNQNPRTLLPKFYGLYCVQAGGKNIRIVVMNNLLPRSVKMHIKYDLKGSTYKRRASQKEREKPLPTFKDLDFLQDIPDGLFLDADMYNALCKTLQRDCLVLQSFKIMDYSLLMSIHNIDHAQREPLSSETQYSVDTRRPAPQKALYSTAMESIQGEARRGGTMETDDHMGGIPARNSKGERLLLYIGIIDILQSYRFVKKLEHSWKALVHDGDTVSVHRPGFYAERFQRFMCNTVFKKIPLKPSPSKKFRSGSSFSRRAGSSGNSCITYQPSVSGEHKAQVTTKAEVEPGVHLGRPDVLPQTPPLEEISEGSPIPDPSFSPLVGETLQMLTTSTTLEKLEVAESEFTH
VEGFR-2 (KDR), sequence (P35968 20-1356, species assumed): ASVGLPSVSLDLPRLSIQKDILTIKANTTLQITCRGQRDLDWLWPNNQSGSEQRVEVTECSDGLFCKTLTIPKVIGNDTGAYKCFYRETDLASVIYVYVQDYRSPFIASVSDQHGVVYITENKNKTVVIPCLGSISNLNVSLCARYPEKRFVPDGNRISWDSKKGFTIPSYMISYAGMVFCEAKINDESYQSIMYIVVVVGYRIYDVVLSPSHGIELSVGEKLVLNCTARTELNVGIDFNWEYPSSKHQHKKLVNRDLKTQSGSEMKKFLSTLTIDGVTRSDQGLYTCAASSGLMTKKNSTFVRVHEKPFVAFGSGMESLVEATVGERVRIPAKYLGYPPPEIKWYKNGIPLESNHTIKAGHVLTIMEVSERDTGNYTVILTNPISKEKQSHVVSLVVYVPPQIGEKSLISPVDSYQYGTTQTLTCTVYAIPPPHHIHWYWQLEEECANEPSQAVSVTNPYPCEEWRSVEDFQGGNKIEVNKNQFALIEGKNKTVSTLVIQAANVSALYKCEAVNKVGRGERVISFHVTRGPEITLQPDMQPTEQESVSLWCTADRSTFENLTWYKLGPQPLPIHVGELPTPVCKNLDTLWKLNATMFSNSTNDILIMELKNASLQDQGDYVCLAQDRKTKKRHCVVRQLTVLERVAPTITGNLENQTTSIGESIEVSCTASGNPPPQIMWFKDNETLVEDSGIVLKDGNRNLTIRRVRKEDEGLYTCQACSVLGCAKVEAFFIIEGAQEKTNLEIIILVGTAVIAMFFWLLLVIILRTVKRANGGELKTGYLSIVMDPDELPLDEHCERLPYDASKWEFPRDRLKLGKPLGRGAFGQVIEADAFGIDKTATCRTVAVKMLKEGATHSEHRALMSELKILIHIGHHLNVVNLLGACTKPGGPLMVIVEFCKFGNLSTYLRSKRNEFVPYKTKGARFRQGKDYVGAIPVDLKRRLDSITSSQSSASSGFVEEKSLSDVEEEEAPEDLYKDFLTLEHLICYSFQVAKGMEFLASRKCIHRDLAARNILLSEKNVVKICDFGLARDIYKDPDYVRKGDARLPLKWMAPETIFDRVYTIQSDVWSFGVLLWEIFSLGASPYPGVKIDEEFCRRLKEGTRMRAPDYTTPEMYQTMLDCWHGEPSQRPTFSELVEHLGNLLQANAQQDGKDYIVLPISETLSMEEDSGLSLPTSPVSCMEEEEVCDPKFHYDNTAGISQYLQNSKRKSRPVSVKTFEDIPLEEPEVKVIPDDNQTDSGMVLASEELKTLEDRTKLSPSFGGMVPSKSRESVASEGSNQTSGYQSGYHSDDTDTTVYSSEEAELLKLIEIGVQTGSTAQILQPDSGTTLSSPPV
T2 sequence (O60331 whole entry): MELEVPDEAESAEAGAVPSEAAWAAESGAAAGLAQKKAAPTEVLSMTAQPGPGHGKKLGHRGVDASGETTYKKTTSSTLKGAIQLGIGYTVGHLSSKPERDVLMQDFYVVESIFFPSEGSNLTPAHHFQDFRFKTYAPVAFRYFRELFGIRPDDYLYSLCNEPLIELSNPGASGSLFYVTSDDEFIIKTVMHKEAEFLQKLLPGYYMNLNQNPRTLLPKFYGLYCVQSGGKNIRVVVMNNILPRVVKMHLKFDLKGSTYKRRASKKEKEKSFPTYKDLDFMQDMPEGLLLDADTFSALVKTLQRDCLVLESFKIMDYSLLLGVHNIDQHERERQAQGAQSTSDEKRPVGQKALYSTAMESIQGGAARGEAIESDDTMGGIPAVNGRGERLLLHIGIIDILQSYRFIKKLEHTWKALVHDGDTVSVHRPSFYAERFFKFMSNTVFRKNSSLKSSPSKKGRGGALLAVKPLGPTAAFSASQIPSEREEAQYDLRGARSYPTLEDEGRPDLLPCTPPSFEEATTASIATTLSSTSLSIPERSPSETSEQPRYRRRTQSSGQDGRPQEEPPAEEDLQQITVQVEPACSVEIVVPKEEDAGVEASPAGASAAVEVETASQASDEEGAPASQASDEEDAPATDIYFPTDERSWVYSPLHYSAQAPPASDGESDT

## CC(C)Cn1c2ccc(Nc3ncccn3)cc2c2c3c(c4c(c21)CCc1nn(C)cc1-4)C(=O)NC3 [ESK981, 13-isobutyl-4-methyl-10-(pyrimidin-2-ylamino)-1,2,4,7,8,13-hexahydro-6H-indazolo[5,4-a]pyrrolo[3,4-c]carbazol-6-one]
[1]; 72 hours, increasing concentrations
  cell cycle arrest: dose-dependent G2/M phase arrest
[1]; VCaP cells, ESK981 100 nM vs cabozantinib 5 μM, crizotinib 3 μM, enzalutamide 10 μM
  G2/M arrest compared with other inhibitors: greater G2/M arrest potential at a lower concentration
[2]; DU145 cells, 300 nM, vs 154 autophagy-related compounds and 167 tyrosine kinase inhibitors
  rank in autophagosome induction among compound libraries: highest potency at inducing autophagosome levels
[2]; LNCaP, VCaP and DU145 cells, increasing concentrations
  autophagosome signals (CYTO-ID fluorescence intensity): dose-dependent induction of autophagosome signals
[2]; VCaP and LNCaP cells
  level of autophagosome induction compared with rapamycin: higher than a known autophagy activator, the mTOR inhibitor rapamycin
PC3 and DU145 cells
  autophagic flux (GFP/RFP ratio): low autophagic flux
PIKfyve [3]
  pKd: 7.92
[4]; H&E staining of organs of ESK981-treated mice
  tissue vacuolization in major organs: no major organs were found to have the same tissue vacuolization morphology
[4]; VCaP tumor-bearing mice
  body weight loss: within the range of tolerance
[4]; body weight, liver and kidney serum chemistry, histology of major organs
  tolerability in mice: well-tolerated
[5]; measured at ≥6 weeks of ESK981 treatment
  evaluable patients achieving stable disease: 51%
[5]; patients with advanced, relapsed, or refractory solid tumors
  safety, pharmacokinetic and pharmacodynamic profiles: favorable safety, pharmacokinetic, and pharmacodynamic profiles
PIP5K1C
  pKd: 6.68
PIK3CA
  pKd: < 5.00
PIP5K1A
  pKd: 6.64
[6]
  expression of CXCL10 in the presence of IFNγ: enhance expression of CXCL10
[7]; day 21
  tumor weights: significant decreases in tumor weights
[7]; oral gavage 5 days per week, SCID mice
  tumor growth: Significant inhibition of tumor growth
VEGFR-2 (KDR)
  activity against kinase: potent activity
PIKfyve [8]
  cellular target engagement on PIKfyve: confirmed
VCaP 3D spheroids
  inhibitory effect on 3D spheroids: more robust inhibitory effect at relatively lower concentrations than cabozantinib
